# Key:
# [1] = Breath Biopsy: VOCs in exhaled breath after ingestion of a peppermint capsule; format: in vivo; conditions: for VOC level in breath compared to baseline pre-ingestion controls: breath captured 30 minutes after consumption of the peppermint capsule, FIG. 1; for VOC level in breath compared to baseline pre-ingestion controls / relative abundance among peppermint-related compounds in breath: single individual
# Experimental: For comparison, two breath collections were made from the same individual prior to ingestion to provide a baseline concentration for the VOCs of interest. Breath samples were analysed in the Breath Biopsy® Clinical Lab by FAIMS and TD-GC-TOF mass spectrometry.
# CYP3A4 = CYP3A4 (Homo sapiens, UniProt P08684); conditions: cited from earlier work
# Chain of CYP3A4 (P08684 whole entry): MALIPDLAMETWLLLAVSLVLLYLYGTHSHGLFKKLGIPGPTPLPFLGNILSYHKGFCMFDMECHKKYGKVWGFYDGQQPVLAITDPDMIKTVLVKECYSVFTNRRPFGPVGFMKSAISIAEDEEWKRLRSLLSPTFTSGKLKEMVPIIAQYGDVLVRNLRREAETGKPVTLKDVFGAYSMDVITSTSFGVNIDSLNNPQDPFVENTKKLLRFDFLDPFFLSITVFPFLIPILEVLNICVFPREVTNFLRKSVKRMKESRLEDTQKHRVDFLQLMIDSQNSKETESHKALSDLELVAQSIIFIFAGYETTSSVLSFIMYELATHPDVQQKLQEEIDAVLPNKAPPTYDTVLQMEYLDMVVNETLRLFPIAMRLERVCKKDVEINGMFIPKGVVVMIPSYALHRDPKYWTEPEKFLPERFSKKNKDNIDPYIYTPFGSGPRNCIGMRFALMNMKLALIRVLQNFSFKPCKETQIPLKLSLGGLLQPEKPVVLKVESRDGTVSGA
# [2] = test system: CYP2C19 and CYP2C9 enzymes; test: Clinical study: limonene in exhaled breath, patients treated with an atherothrombotic drug versus untreated controls; format: in vivo; conditions: drug metabolised by CYP2C19 and CYP2C9 competes with limonene metabolism; FIG. 5
# Excerpt: FIG. 5. Limonene concentration in the exhaled breath of patients prescribed with an atherothrombotic drug that is metabolised by CYP2C19 and CYP2C9 enzymes.
# The drug is metabolised by CYP2C19 and CYP2C9 enzymes. […] As less limonene is metabolised compare dot eh control group.
# [3] = after consumption of the peppermint capsule
SMILES,VOC level in breath compared to baseline pre-ingestion controls [1],metabolising enzyme (CYP3A4),"concentration in breath [1, 3]","relative abundance among peppermint-related compounds in breath [1, 3]","limonene in exhaled breath, drug-treated patients versus untreated control group [2]"
CC1CCC(C(C)C)C(O)C1 (racemic) [(±)-menthol],large increase,–,–,–,–
CC12CCC(CC1)C(C)(C)O2 [eucalyptol],large increase,specifically metabolised by CYP3A4,–,–,–
C=C(C)[C@H]1CC=C(C)CC1 [limonene],large increase,–,part-per-trillion (ppt) concentrations,most abundant,higher secretion of limonene into breath

# Now from value to compound, other results behind:
VOC level in breath compared to baseline pre-ingestion controls [1],SMILES,metabolising enzyme (CYP3A4),"concentration in breath [1, 3]","relative abundance among peppermint-related compounds in breath [1, 3]","limonene in exhaled breath, drug-treated patients versus untreated control group [2]"
large increase,CC1=CCC2CC1C2(C)C (stereo not drawn) [α-pinene],–,–,–,–
large increase,C=C1CCC2CC1C2(C)C (stereo not drawn) [β-pinene],–,–,most abundant,–
